Reference: ChEMBL document CHEMBL4834415, “Distinct Lugdunins from a New Efficient Synthesis and Broad Exploitation of Its MRSA-Antimicrobial Structure” (2021)
Values after ≈ are worked out from the molar mass of the structure shown.

Tested on: Staphylococcus aureus
Assay: Antibacterial activity against methicillin-resistant Staphylococcus aureus USA300 LAC assessed as reduction in bacterial growth incubated for 21 hrs by broth dilution method
Type: functional

Row | Structure (SMILES) | MIC
1 | CC(C)C[C@H]1NC(=O)[C@H](Cc2cscn2)NC(=O)[C@@H](C(C)C)NC(=O)[C@@H]2CSC(N2)[C@H](C(C)C)NC(=O)[C@@H](C(C)C)NC(=O)[C@H](C(C)C)NC1=O | 133 µM (≈ 100 µg/mL)
2 | CC(C)C[C@H]1NC(=O)[C@H](Cc2ccc(Cl)cc2)NC(=O)[C@@H](C(C)C)NC(=O)[C@@H]2CSC(N2)[C@H](C(C)C)NC(=O)[C@@H](C(C)C)NC(=O)[C@H](C(C)C)NC1=O | 129 µM (≈ 100 µg/mL)
3 | CC(C)C[C@H]1NC(=O)[C@H](C(c2ccccc2)c2ccccc2)NC(=O)[C@@H](C(C)C)NC(=O)[C@@H]2CSC(N2)[C@H](C(C)C)NC(=O)[C@@H](C(C)C)NC(=O)[C@H](C(C)C)NC1=O | 61.1 µM (≈ 50.1 µg/mL)
4 | CC(C)C[C@H]1NC(=O)[C@H](c2ccccc2)NC(=O)[C@@H](C(C)C)NC(=O)[C@@H]2CSC(N2)[C@H](C(C)C)NC(=O)[C@@H](C(C)C)NC(=O)[C@H](C(C)C)NC1=O | 137 µM (≈ 100 µg/mL)
5 | CC(C)C[C@H]1NC(=O)[C@H](Cc2ccc(O)c(O)c2)NC(=O)[C@@H](C(C)C)NC(=O)[C@@H]2CSC(N2)[C@H](C(C)C)NC(=O)[C@@H](C(C)C)NC(=O)[C@H](C(C)C)NC1=O | 130 µM (≈ 101 µg/mL)
6 | CC(C)C[C@H]1NC(=O)[C@H](Cc2ccncc2)NC(=O)[C@@H](C(C)C)NC(=O)[C@@H]2CSC(N2)[C@H](C(C)C)NC(=O)[C@@H](C(C)C)NC(=O)[C@H](C(C)C)NC1=O | 134 µM (≈ 100 µg/mL)
7 | CC(C)C[C@H]1NC(=O)[C@H](Cc2cccc([N+](=O)[O-])c2)NC(=O)[C@@H](C(C)C)NC(=O)[C@@H]2CSC(N2)[C@H](C(C)C)NC(=O)[C@@H](C(C)C)NC(=O)[C@H](C(C)C)NC1=O | 127 µM (≈ 100 µg/mL)
8 | CC(C)C[C@H]1NC(=O)[C@H](Cc2nc3ccccc3s2)NC(=O)[C@@H](C(C)C)NC(=O)[C@@H]2CSC(N2)[C@H](C(C)C)NC(=O)[C@@H](C(C)C)NC(=O)[C@H](C(C)C)NC1=O | 31.3 µM (≈ 25.1 µg/mL)
9 | CC(C)C[C@H]1NC(=O)[C@H](Cc2ccco2)NC(=O)[C@@H](C(C)C)NC(=O)[C@@H]2CSC(N2)[C@H](C(C)C)NC(=O)[C@@H](C(C)C)NC(=O)[C@H](C(C)C)NC1=O | 136 µM (≈ 100 µg/mL)
10 | CC(C)C[C@H]1NC(=O)[C@H](Cc2ccc(C(=O)c3ccccc3)cc2)NC(=O)[C@@H](C(C)C)NC(=O)[C@@H]2CSC(N2)[C@H](C(C)C)NC(=O)[C@@H](C(C)C)NC(=O)[C@H](C(C)C)NC1=O | 59 µM (≈ 50 µg/mL)
11 | CC(C)C[C@H]1NC(=O)[C@H](Cc2cccs2)NC(=O)[C@@H](C(C)C)NC(=O)[C@@H]2CSC(N2)[C@H](C(C)C)NC(=O)[C@@H](C(C)C)NC(=O)[C@H](C(C)C)NC1=O | 134 µM (≈ 100 µg/mL)
12 | CC(C)C[C@H]1NC(=O)[C@H](Cc2cccc3ccccc23)NC(=O)[C@@H](C(C)C)NC(=O)[C@@H]2CSC(N2)[C@H](C(C)C)NC(=O)[C@@H](C(C)C)NC(=O)[C@H](C(C)C)NC1=O | 7.9 µM (≈ 6.27 µg/mL)
13 | CC(C)C[C@H]1NC(=O)[C@@H]2CSC(N2)[C@H](C(C)C)NC(=O)[C@@H](C(C)C)NC(=O)[C@H](C(C)C)NC(=O)[C@@H](CC(C)C)NC(=O)[C@H](Cc2c[nH]c3ccccc23)NC1=O | 15.7 µM (≈ 12.5 µg/mL)
14 | CC(C)C[C@H]1NC(=O)[C@H](Cc2csc3ccccc23)NC(=O)[C@@H](C(C)C)NC(=O)[C@@H]2CSC(N2)[C@H](C(C)C)NC(=O)[C@@H](C(C)C)NC(=O)[C@H](C(C)C)NC1=O | 15.6 µM (≈ 12.5 µg/mL)
15 | CC[C@H](C)[C@H]1NC(=O)[C@@H]2CSC(N2)[C@H](C(C)C)NC(=O)[C@@H](C(C)C)NC(=O)[C@H](C(C)C)NC(=O)[C@@H](CC(C)C)NC(=O)[C@H](Cc2c[nH]c3ccccc23)NC1=O | 7.9 µM (≈ 6.3 µg/mL)
16 | CC(C)C[C@H]1NC(=O)[C@H](Cc2c[nH]cn2)NC(=O)[C@@H](C(C)C)NC(=O)[C@@H]2CSC(N2)[C@H](C(C)C)NC(=O)[C@@H](C(C)C)NC(=O)[C@H](C(C)C)NC1=O | 136 µM (≈ 100 µg/mL)
17 | CC(C)C[C@H]1NC(=O)[C@H](Cc2c(F)c(F)c(F)c(F)c2F)NC(=O)[C@@H](C(C)C)NC(=O)[C@@H]2CSC(N2)[C@H](C(C)C)NC(=O)[C@@H](C(C)C)NC(=O)[C@H](C(C)C)NC1=O | 30 µM (≈ 25 µg/mL)
18 | CC(C)C[C@H]1NC(=O)[C@H](Cc2ccc(-c3ccccc3)cc2)NC(=O)[C@@H](C(C)C)NC(=O)[C@@H]2CSC(N2)[C@H](C(C)C)NC(=O)[C@@H](C(C)C)NC(=O)[C@H](C(C)C)NC1=O | 30.5 µM (≈ 25 µg/mL)
